Measurements as given in patent US20250304620A1, “ANTIMICROBIAL PEPTIDE AND APPLICATION THEREOF” (priority 2023, published 2025).
≈ marks a conversion by molar mass, not a printed value. Marks after values point to notes of the source that are not given here. Non-standard residues stand in square brackets, D forms with d. Residues, ends and D or L forms follow the SMILES beside them. d2Nal = N[C@H](Cc1ccc2ccccc2c1)C(=O)O

Tests used:
[1] = system: Candida albicans ATCC MYA-2876; type: cell-based
Outline: (§1)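 Serial twofold peptide dilutions were set up in microdilution format per CLSI, MICs were read, and the procedure was repeated in 5 parallel runs.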

Candida krusei ATCC 6258 = type: cell-based
Outline: as §1

[2] = system: Candida tropicalis ATCC 750; type: cell-based
Outline: as §1

[3] = system: Corynebacterium ATCC 7715; type: cell-based
Outline: as §1

Enterococcus ATCC 29212 = type: cell-based
Outline: as §1

[4] = system: Escherichia coli ATCC 25922; type: cell-based
Outline: as §1

[5] = system: Klebsiella pneumoniae ATCC 700603; type: cell-based
Outline: as §1

[6] = system: Pseudomonas aeruginosa ATCC 27853; type: cell-based
Outline: as §1

[7] = system: Serratia marcescens ATCC 29021; type: cell-based
Outline: as §1

[8] = system: Trichophyton ATCC MYA-4438; type: cell-based
Outline: as §1

[9] = system: Shigella flexneri ATCC 12022; assay: MIC against clinically common bacterial strain; type: cell-based
Outline: as §1

[10] = system: Methicillin-resistant Staphylococcus aureus (MRSA); type: cell-based; conditions: Methicillin-resistant
Outline: (§2)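 Broth serial twofold dilution per CLSI standards, run 5 times in parallel, gave MIC values for the peptides against clinically common resistant strains.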

[11] = system: carbapenem-resistant Escherichia coli (CREC); type: cell-based; conditions: carbapenem-resistant (CREC)
Outline: as §2

[12] = system: carbapenem-resistant Klebsiella pneumoniae (CRKP); type: cell-based; conditions: carbapenem-resistant (CRKP)
Outline: as §2

[13] = system: carbapenem-resistant Pseudomonas aeruginosa (CRPA); type: cell-based; conditions: carbapenem-resistant (CRPA)
Outline: as §2

[14] = system: vancomycin-resistant Enterococcus (VRE); type: cell-based
Outline: as §2

[15] = system: Staphylococcus aureus (NRS 384); conditions: NRS 384, 3 h
Description: Trypsin (250 U/mg, pH=8.0) and AMPs (LV-1 to LV-30) were mixed in a ratio of 1:10 (w/w) and added to a reaction buffer (0.2 M sodium phosphate, 1 mM CaCl2), pH 7.5), and then incubated at 37° C. for 3 h.

[16] = system: Pseudomonas aeruginosa ATCC 27853; assay: Injectable formulations on mice infected with peritonitis; type: in vivo, ICR mice; conditions: twice a day for 3 days; for Number of mice that died on each day after infection: day 1 / Number of mice that died on each day after infection: day 2 / Number of mice that died on each day after infection: day 3 / Number of mice that died on each day after infection: day 4 / Number of mice that died on each day after infection: day 5 / Average survival times (Days): n = 10; for Average survival times (Days): observed for 14 d
Outline: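 Survival readout: deaths and survival time tracked for 14 d. Treatment was tail-vein injection by body weight, twice a day for 3 consecutive days, starting right after intraperitoneal challenge with 0.2 mL of 1×10^9 CFU/mL P. aeruginosa ATCC 27853 in male and female ICR mice.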

[17] = system: Escherichia coli ATCC 25922; assay: Oral formulations on mice with systemic bacterial infection; type: in vivo, ICR mice; conditions: three times a day for 7 days; for Number of mice that died on each day after infection: day 4 / Number of mice that died on each day after infection: day 5 / Number of mice that died on each day after infection: day 6 / Number of mice that died on each day after infection: day 7 / Number of mice that died on each day after infection: day 8 / Average survival times (Days): n = 10; for Average survival times (Days): observed for 14 d
Outline: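 Survival time and deaths were logged over a 14 d observation after oral gavage dosing (by body weight, thrice daily, 7 days, starting right after infection). Model: mixed-sex ICR mice, n=10 per group, intraperitoneal injection of E. coli ATCC 25922 suspension (0.2 mL, 1×10^7 CFU/mL).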

Structure (SMILES): CC(=O)N[C@H](CCCNC(=N)N)C(=O)N[C@H](CCCCN)C(=O)N[C@H](CC(C)C)C(=O)N[C@H](CC(C)C)C(=O)N[C@H](Cc1ccc2ccccc2c1)C(=O)N[C@H](CCCNC(=N)N)C(=O)N[C@H](CC(C)C)C(=O)N[C@H](CCCCN)C(=O)N[C@H](Cc1ccc2ccccc2c1)C(=O)N[C@H](CCCNC(=N)N)C(=O)N[C@H](CCCCN)C(N)=O [LV-20] (Ac-[dR][dK][dL][dL][d2Nal][dR][dL][dK][d2Nal][dR][dK]-NH2)
- MIC Candida albicans ATCC MYA-2876 [1]: 4 µg/mL (≈ 2.43 µM)
- MIC Candida krusei ATCC 6258 (Candida krusei ATCC 6258): 8 µg/mL (≈ 4.86 µM)
- MIC Candida tropicalis ATCC 750 [2]: 8 µg/mL (≈ 4.86 µM)
- MIC Corynebacterium ATCC 7715 [3]: 2 µg/mL (≈ 1.21 µM)
- MIC Enterococcus ATCC 29212 (Enterococcus ATCC 29212): 4 µg/mL (≈ 2.43 µM)
- MIC Escherichia coli ATCC 25922 [4]: 1 µg/mL (≈ 0.607 µM)
- MIC Klebsiella pneumoniae ATCC 700603 [5]: 2 µg/mL (≈ 1.21 µM)
- MIC Pseudomonas aeruginosa ATCC 27853 [6]: 1 µg/mL (≈ 0.607 µM)
- MIC Serratia marcescens ATCC 29021 [7]: 2 µg/mL (≈ 1.21 µM)
- MIC Trichophyton ATCC MYA-4438 [8]: 8 µg/mL (≈ 4.86 µM)
- MIC Shigella flexneri ATCC 12022 [9]: 4 µg/mL (≈ 2.43 µM)
- MIC MRSA [10]: 2 µg/mL (≈ 1.21 µM)
- MIC CREC [11]: 8 µg/mL (≈ 4.86 µM)
- MIC CRKP [12]: 8 µg/mL (≈ 4.86 µM)
- MIC CRPA [13]: 4 µg/mL (≈ 2.43 µM)
- MIC VRE [14]: 4 µg/mL (≈ 2.43 µM)
- Trypsin MIC [15]: 1 µg/mL
- Number of mice that died on each day after infection: day 1 ([16]; 0.2 mg/kg via tail vein): 2 Mouse
- Number of mice that died on each day after infection: day 2 ([16]; 0.2 mg/kg via tail vein): 1 Mouse
- Number of mice that died on each day after infection: day 3 ([16]; 0.2 mg/kg via tail vein): 2 Mouse
- Number of mice that died on each day after infection: day 4 ([16]; 0.2 mg/kg via tail vein): 1 Mouse
- Number of mice that died on each day after infection: day 5 ([16]; 0.2 mg/kg via tail vein): 0 Mouse
- Average survival times (Days) ([16]; 0.2 mg/kg via tail vein): 7.0** Days
- Number of mice that died on each day after infection: day 1 ([16]; 1 mg/kg via tail vein): 1 Mouse
- Number of mice that died on each day after infection: day 2 ([16]; 1 mg/kg via tail vein): 1 Mouse
- Number of mice that died on each day after infection: day 3 ([16]; 1 mg/kg via tail vein): 1 Mouse
- Number of mice that died on each day after infection: day 4 ([16]; 1 mg/kg via tail vein): 0 Mouse
- Number of mice that died on each day after infection: day 5 ([16]; 1 mg/kg via tail vein): 0 Mouse
- Average survival times (Days) ([16]; 1 mg/kg via tail vein): 10.4**** Days
- Number of mice that died on each day after infection: day 1 ([16]; 5 mg/kg via tail vein): 1 Mouse
- Number of mice that died on each day after infection: day 2 ([16]; 5 mg/kg via tail vein): 2 Mouse
- Number of mice that died on each day after infection: day 3 ([16]; 5 mg/kg via tail vein): 0 Mouse
- Number of mice that died on each day after infection: day 4 ([16]; 5 mg/kg via tail vein): 0 Mouse
- Number of mice that died on each day after infection: day 5 ([16]; 5 mg/kg via tail vein): 0 Mouse
- Average survival times (Days) ([16]; 5 mg/kg via tail vein): 10.3**** Days
- survival time of mice infected with Pseudomonas aeruginosa ([16]; tail vein, observed 14 d): superior to those of the Levofloxacin group
- Number of mice that died on each day after infection: day 4 ([17]; 0.2 mg/kg gavage): 1 Mouse
- Number of mice that died on each day after infection: day 5 ([17]; 0.2 mg/kg gavage): 1 Mouse
- Number of mice that died on each day after infection: day 6 ([17]; 0.2 mg/kg gavage): 2 Mouse
- Number of mice that died on each day after infection: day 7 ([17]; 0.2 mg/kg gavage): 2 Mouse
- Number of mice that died on each day after infection: day 8 ([17]; 0.2 mg/kg gavage): 0 Mouse
- Average survival times (Days) ([17]; 0.2 mg/kg gavage): 9.1** Days
- Number of mice that died on each day after infection: day 4 ([17]; 1 mg/kg gavage): 1 Mouse
- Number of mice that died on each day after infection: day 5 ([17]; 1 mg/kg gavage): 1 Mouse
- Number of mice that died on each day after infection: day 6 ([17]; 1 mg/kg gavage): 0 Mouse
- Number of mice that died on each day after infection: day 7 ([17]; 1 mg/kg gavage): 1 Mouse
- Number of mice that died on each day after infection: day 8 ([17]; 1 mg/kg gavage): 0 Mouse
- Average survival times (Days) ([17]; 1 mg/kg gavage): 11.4**** Days
- Number of mice that died on each day after infection: day 4 ([17]; 5 mg/kg gavage): 2 Mouse
- Number of mice that died on each day after infection: day 5 ([17]; 5 mg/kg gavage): 0 Mouse
- Number of mice that died on each day after infection: day 6 ([17]; 5 mg/kg gavage): 2 Mouse
- Number of mice that died on each day after infection: day 7 ([17]; 5 mg/kg gavage): 0 Mouse
- Number of mice that died on each day after infection: day 8 ([17]; 5 mg/kg gavage): 0 Mouse
- Average survival times (Days) ([17]; 5 mg/kg gavage): 10.4*** Days
- survival time of mice infected with Escherichia coli ([17]; gavage, observed 14 d): superior to those of the Levofloxacin group

Structure (SMILES): CC(=O)N[C@H](CCCNC(=N)N)C(=O)N[C@H](CCCNC(=N)N)C(=O)N[C@H](CC(C)C)C(=O)N[C@H](CC(C)C)C(=O)N[C@H](Cc1ccc2ccccc2c1)C(=O)N[C@H](CCCNC(=N)N)C(=O)N[C@H](CC(C)C)C(=O)N[C@H](CCCCN)C(=O)N[C@H](Cc1ccc2ccccc2c1)C(=O)N[C@H](CCCNC(=N)N)C(=O)N[C@H](CCCCN)C(N)=O [LV-21] (Ac-[dR][dR][dL][dL][d2Nal][dR][dL][dK][d2Nal][dR][dK]-NH2)
- MIC Candida albicans ATCC MYA-2876 [1]: 8 µg/mL (≈ 4.78 µM)
- MIC Candida krusei ATCC 6258 (Candida krusei ATCC 6258): 4 µg/mL (≈ 2.39 µM)
- MIC Candida tropicalis ATCC 750 [2]: 8 µg/mL (≈ 4.78 µM)
- MIC Corynebacterium ATCC 7715 [3]: 4 µg/mL (≈ 2.39 µM)
- MIC Enterococcus ATCC 29212 (Enterococcus ATCC 29212): 4 µg/mL (≈ 2.39 µM)
- MIC Escherichia coli ATCC 25922 [4]: 2 µg/mL (≈ 1.19 µM)
- MIC Klebsiella pneumoniae ATCC 700603 [5]: 4 µg/mL (≈ 2.39 µM)
- MIC Pseudomonas aeruginosa ATCC 27853 [6]: 2 µg/mL (≈ 1.19 µM)
- MIC Serratia marcescens ATCC 29021 [7]: 4 µg/mL (≈ 2.39 µM)
- MIC Trichophyton ATCC MYA-4438 [8]: 4 µg/mL (≈ 2.39 µM)
- MIC Shigella flexneri ATCC 12022 [9]: 2 µg/mL (≈ 1.19 µM)
- MIC MRSA [10]: 4 µg/mL (≈ 2.39 µM)
- MIC CREC [11]: 2 µg/mL (≈ 1.19 µM)
- MIC CRKP [12]: 2 µg/mL (≈ 1.19 µM)
- MIC CRPA [13]: 4 µg/mL (≈ 2.39 µM)
- MIC VRE [14]: 2 µg/mL (≈ 1.19 µM)
- Trypsin MIC [15]: 1 µg/mL
- Number of mice that died on each day after infection: day 1 ([16]; 1 mg/kg via tail vein): 2 Mouse
- Number of mice that died on each day after infection: day 2 ([16]; 1 mg/kg via tail vein): 0 Mouse
- Number of mice that died on each day after infection: day 3 ([16]; 1 mg/kg via tail vein): 2 Mouse
- Number of mice that died on each day after infection: day 4 ([16]; 1 mg/kg via tail vein): 0 Mouse
- Number of mice that died on each day after infection: day 5 ([16]; 1 mg/kg via tail vein): 0 Mouse
- Average survival times (Days) ([16]; 1 mg/kg via tail vein): 9.2*** Days
- Number of mice that died on each day after infection: day 4 ([17]; 1 mg/kg gavage): 1 Mouse
- Number of mice that died on each day after infection: day 5 ([17]; 1 mg/kg gavage): 2 Mouse
- Number of mice that died on each day after infection: day 6 ([17]; 1 mg/kg gavage): 1 Mouse
- Number of mice that died on each day after infection: day 7 ([17]; 1 mg/kg gavage): 0 Mouse
- Number of mice that died on each day after infection: day 8 ([17]; 1 mg/kg gavage): 1 Mouse
- Average survival times (Days) ([17]; 1 mg/kg gavage): 9.8** Days
